Reference: patent US11406687B2, “Activators of CXCR3 for the treatment of angiopathies of the eye” (University of Pittsburgh—Of the Commonwealth System of …, priority 2011, dated 2022)

What was measured:
[1] = test system: rabbits with experimental glaucoma; assay: Restenosis following glaucoma treatment in rabbits with experimental glaucoma (Example 1); format: in vivo, rabbit; details: rabbits treated for glaucoma by drilling an anastomy; peptides injected into the aqueous humor
Procedure: To test the effect of the 21 amino acid IP-10 peptide (SEQ ID NO: 2) on restenosis following glaucoma treatment, an experiment is conducted in rabbits with experimental glaucoma.
Rabbits are treated with IP-10 peptide (SEQ ID NO: 2), PF4, or a scrambled control peptide. Rabbits are treated for glaucoma by drilling an anastomy. The peptides are then injected into the aqueous humor.
Changes in pressure are evaluated before and after treatment with the peptides.

[2] = test system: rabbits with experimental WMD; assay: Wet macular degeneration in rabbits with experimental WMD (Example 2); format: in vivo, rabbit; details: injection into the vitreous humor, repeated as necessary
Procedure: To test the effect of the 21 amino acid IP-10 peptide (SEQ ID NO: 2) on wet macular degeneration (WMD), an experiment is conducted in rabbits with experimental WMD.
Rabbits are treated with IP-10 peptide (SEQ ID NO: 2), PF4, or a scrambled control peptide by injection into the vitreous humor. Rabbits are evaluated visually over time to evaluate the effect of each peptide. Injections are repeated as necessary.

Molecule	Changes in pressure before and after treatment with the peptides [1]	Effect on WMD, evaluated visually over time [2]
IP-10 peptide: 21 amino acid fragment of human IP-10, ESKAIKNLLKAVSKERSKRSP (listed as Homo sapiens)	prevent an increase in pressure	inhibit the development of WMD and/or lead to a reversion of WMD
PF4: 70-amino acid CXC chemokine released from alpha-granules of activated platelets; human PF4 sequence SEQ ID NO: 3 (protein, listed as Homo sapiens) EAEEDGDLQCLCVKTTSQVRPRHITSLEVIKAGPHCPTAQLIATLKNGRKICLDLQAPLYKKIIKKLLES	prevent an increase in pressure	inhibit the development of WMD and/or lead to a reversion of WMD
